Source: US8754115B2, “Fungicidal pyrazoles” (E I du Pont de Nemours and Company, priority 2010, dated 2014)
Marks after values point to notes of the source that are not given here.

How the values were obtained:
Type in all cases: in vivo
Septoria tritici = assay: Test D: preventive spray on wheat seedlings, visual disease rating (wheat leaf blotch)
In short: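 Protection was scored visually on a 0–100% disease-control scale versus controls, 19 days after plants were moved to 20 °C following 48 h of 24 °C saturated humidity. Spore inoculation with S. tritici took place one day after a preventive run-off spray, usually at 200 ppm (800 g/ha) and at 40 ppm where asterisked.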

[1] = test system: Puccinia recondite f. sp. tritici; assay: Test E1: curative spray on wheat seedlings after inoculation, visual disease rating (wheat leaf rust)
From the text: (§1) General protocol for preparing test suspensions for Tests A-F: the test compounds were first dissolved in acetone in an amount equal to 3% of the final volume and then suspended at the desired concentration (in ppm) in acetone and purified water (50/50 mix by volume) containing 250 ppm of the surfactant Trem® 014 (polyhydric alcohol esters). The resulting test suspensions were then used in Tests A-F. Spraying a 200 ppm test suspension to the point of run-off on the test plants was the equivalent of a rate of 800 g/ha. Unless otherwise indicated, the rating values indicate a 200 ppm test suspension was used. (An asterisk “*” next to the rating value indicates a 40 ppm test suspension was used.)
Wheat seedlings were inoculated with a spore suspension of Puccinia recondite f. sp. tritici (the causal agent of wheat leaf rust) and incubated in a saturated atmosphere at 20° C. for 24 h, and then moved to a growth chamber at 20° C. for 2 days. After 2 days, the test suspension was sprayed to the point of run-off on the wheat seedlings, and then the seedlings were moved back to the growth chamber at 20° C. for 6 days. Upon removal, visual disease ratings were made.
(§2) Results for Tests A-F are given in Table A. In the Table, a rating of 100 indicates 100% disease control and a rating of 0 indicates no disease control (relative to the controls). A dash (-) indicates no test results. An asterisk “*” next to the rating value indicates a 40 ppm test suspension was used.

Botrytis cinerea = assay: Test A: preventive spray on tomato seedlings, visual disease rating (tomato Botrytis)
In short: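 Preventive test: Botrytis cinerea spores applied one day after run-off spraying at 200 ppm (≈800 g/ha), or 40 ppm where asterisked. Incubation 48 h at 20 °C in saturated air, then 3 days at 24 °C; disease scored visually from 0 (no control) to 100 (complete control) versus untreated.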

Alternaria solani = assay: Test B: preventive spray on tomato seedlings, visual disease rating (tomato early blight)
From the text: as §1
(§3) The test suspension was sprayed to the point of run-off on tomato seedlings. The following day the seedlings were inoculated with a spore suspension of Alternaria solani (the causal agent of tomato early blight) and incubated in a saturated atmosphere at 27° C. for 48 h, and then moved to a growth chamber at 20° C. for 5 days, after which time visual disease ratings were made.
as §2

[2] = test system: Puccinia recondite f. sp. tritici; assay: Test E2: preventive spray on wheat seedlings, visual disease rating (wheat leaf rust)
In short: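 Wheat seedlings were inoculated with leaf rust spores one day after a run-off spray of compound at 200 ppm (asterisk: 40 ppm) in 50/50 acetone/water with 250 ppm Trem 014. Incubation: 24 h saturated humidity, 20 °C; then 7 days growth chamber, 20 °C. Disease control scored visually, 0–100% relative to controls.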

Septoria nodorum = assay: Test C: preventive spray on wheat seedlings, visual disease rating (Septoria glume blotch)
From the text: as §1
as §3, with “wheat” for “tomato”, “Septoria nodorum” for “Alternaria solani”, “Septoria glume blotch)” for “tomato early blight)”, “24°” for “27°”, “6” for “5”
as §2

[3] = test system: Blumeria graminis f. sp. tritici; assay: Test F: preventive spray on wheat seedlings, visual disease rating (wheat powdery mildew)
In short: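 Visual ratings (0–100% control relative to controls) taken 8 days after spore-dust inoculation at 20° C. Inoculation followed one day after a protective run-off spray of 200 ppm suspension, equal to 800 g/ha, or 40 ppm where flagged, made in acetone/water with 250 ppm surfactant.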

[4] = no asterisk: standard test suspension, not 40 ppm
[5] = no asterisk: standard test suspension, not 40 ppm, 100 = 100% disease control, 0 = none
[6] = asterisk: 40 ppm test suspension

| Compound | Test D rating (% disease control) (Septoria tritici; [4]) | Test E1 rating (% disease control) [1, 4] | Test A rating (% disease control) (Botrytis cinerea; [5]) | Test B rating (% disease control) (Alternaria solani; [4]) | Test E2 rating (% disease control) [2, 4] | Test C rating (% disease control) (Septoria nodorum; [4]) | Test F rating (% disease control) [3, 4] | Test D rating (% disease control) (Septoria tritici; [6]) | Test E1 rating (% disease control) [1, 6] | Test A rating (% disease control) (Botrytis cinerea; [6]) | Test B rating (% disease control) (Alternaria solani; [6]) | Test E2 rating (% disease control) [2, 6] | Test C rating (% disease control) (Septoria nodorum; [6]) | Test F rating (% disease control) [3, 6] |
| --- | --- | --- | --- | --- | --- | --- | --- | --- | --- | --- | --- | --- | --- | --- |
| Cc1nn(C)c(-c2c(F)cccc2F)c1C(=O)c1ccc(F)cc1F [compound 24] | 0% | 9% | 9% | 0% | 79% | 0% | 96% | – | – | – | – | – | – | – |
| Cc1nn(C)c(-c2c(F)cccc2F)c1S(=O)(=O)c1ccc(Cl)cc1 [compound 62] | 0% | 0% | 0% | 0% | 28% | 0% | 94% | – | – | – | – | – | – | – |
| Cc1nn(C)c(-c2c(F)cccc2F)c1C(O)c1ccc(F)cc1Br (centres unmarked) [compound 21] | 100% | 100% | 99% | 100% | 100% | 100% | 98% | – | – | – | – | – | – | – |
| Cc1nn(C)c(-c2ccc(F)cc2Br)c1C(=O)c1ccc(F)cc1Cl [compound 83] | – | – | – | – | – | – | – | 25* % | 0* % | 55* % | 0* % | 74* % | 0* % | 99* % |
| Cc1nn(C)c(-c2c(F)cccc2Cl)c1C(O)c1ccc(F)cc1F (centres unmarked) [compound 33] | 100% | 99% | 100% | 100% | 100% | 100% | 100% | – | – | – | – | – | – | – |
| Cc1nn(C)c(-c2c(F)cccc2Cl)c1C(=O)c1ccc(F)cc1F [compound 28] | 0% | 0% | 56% | 0% | 8% | 0% | 79% | – | – | – | – | – | – | – |
| Cc1nn(C)c(-c2ccc(F)cc2Br)c1C(O)c1c(F)cc(F)cc1F (centres unmarked) [compound 82] | 99% | 27% | 99% | 100% | 100% | 92% | 100% | – | – | – | – | – | – | – |
| Cc1nn(C)c(-c2ccc(F)cc2Cl)c1Nc1ccc(F)cc1Cl [compound 42] | 100% | 32% | 99% | 99% | 99% | 0% | 100% | – | – | – | – | – | – | – |
| Cn1nc(C#N)c(C(=O)c2ccc(F)cc2Cl)c1-c1c(F)cccc1F [Compound 52, 4-(2-chloro-4-fluorobenzoyl)-5-(2,6-difluorophenyl)-1-methyl-1H-pyrazole-3-carbonitrile] | 100% | 98% | 100% | 100% | 100% | 99% | 100% | – | – | – | – | – | – | – |
| 4-[[5-(2-chloro-4-fluorophenyl)-1,3-dimethyl-1H-pyrazol-4-yl]amino]-3,5-difluorobenzonitrile [Compound 40] | 0% | 38% | 100% | 0% | 68% | 0% | 91% | – | – | – | – | – | – | – |
| Cc1nn(C)c(-c2ccc(F)cc2F)c1Oc1ccc(C#N)cc1Cl [compound 35] | 100% | 9% | 98% | 0% | 73% | 0% | 0% | – | – | – | – | – | – | – |
| Cc1nn(C)c(-c2ccccc2Br)c1C(O)c1ccc(F)cc1Cl (single isomer, unassigned) [compound 79] | 100% | 53% | 98% | 0% | 100% | 0% | 99% | – | – | – | – | – | – | – |
| Cc1nn(C)c(-c2ccccc2Br)c1C(=O)c1ccc(F)cc1Cl [compound 78] | 0% | 0% | 0% | 31% | 79% | 40% | 99% | – | – | – | – | – | – | – |
| (2,4-difluorophenyl)-[5-(2,4-difluorophenyl)-1,3-dimethyl-1H-pyrazol-4-yl]methanone [Compound 32] | 100% | 0% | 0% | 96% | 9% | 0% | 0% | – | – | – | – | – | – | – |
| Cc1nn(C)c(-c2ccc(F)cc2Cl)c1Oc1ccc(C#N)cc1Cl [compound 43] | 100% | 0% | 98% | 0% | 98% | 0% | 97% | – | – | – | – | – | – | – |
| Cc1nn(C)c(-c2ccc(F)cc2Cl)c1C(O)c1ccc(F)cc1Br (centres unmarked) [compound 23] | 100% | 98% | 100% | 67% | 100% | 87% | 84% | – | – | – | – | – | – | – |
| Cc1nn(C)c(-c2c(F)cccc2F)c1C(O)c1ccc(F)cc1Cl (single isomer, unassigned) [compound 86] | 100% | – | 99% | – | 100% | – | 100% | – | 99* % | – | 100* % | – | 99* % | – |
| Cc1nn(C)c(-c2c(F)cc(F)cc2F)c1C(=O)c1ccc(F)cc1Cl [compound 59] | 58% | 0% | 66% | 0% | 80% | 0% | 100% | – | – | – | – | – | – | – |
| Cc1nn(C)c(-c2c(F)cccc2F)c1C(F)c1ccc(F)cc1Cl (centres unmarked) [Compound 54] | 100% | 100% | 100% | 100% | 99% | 99% | 99% | – | – | – | – | – | – | – |
| Cc1nn(C)c(-c2c(F)cccc2Cl)c1C(=O)c1ccc(Cl)cc1Cl [compound 27] | 0% | 0% | 0% | 0% | 0% | 0% | 81% | – | – | – | – | – | – | – |
